Experimental findings from publication PMC10854894, “A New Benzo[6,7]oxepino[3,2-b] Pyridine Derivative Induces Apoptosis in Canine Mammary Cancer Cell Lines” (Animals : an Open Access Journal from MDPI, 2024) are described below.

SMILES strings stand for the structures. Read-outs that look alike come from different tables or passages of the source.

Format in all cases: cell-based, canine
The subject of experiment [1] is REM134 cells. Put plainly: Annexin V-FITC/PI apoptosis assay, flow cytometry. As to conditions: 48 h; for percentage of total apoptosis: untreated 5.14%. On the procedure:
(§1) The mode of cell death induced by MPOBA was evaluated using FITC Annexin V apoptosis detection kit I (BD Bioscience, San Jose, CA, USA) according to the manufacturer’s protocols. The REM134 and CMGT071020 cell lines were seeded at a density of 2 × 10^4 cells/well in a 12-well plate and allowed to grow for 24 h (60% confluency) prior to treatment with MPOBA at concentrations ranging from 0 to 200 µM for 48 h. After the incubation period, all adhering and floating cells were harvested and transferred into sterile centrifuge tubes. The cells were centrifuged at 400× g for 5 min at room temperature. The supernatant was aspirated, leaving approximately 50 µL of residual fluid in the tubes to avoid disturbing the pellets. FITC Annexin V (5 µL) and PI (5 µL) were added to the tubes containing cell pellets. The mixtures were gently vortexed and incubated for 15 min at room temperature in the dark. A binding buffer (400 µL) was added to each tube. A total of 20,000 events were acquired for each sample using a CytoFLEX flow cytometer (Beckman Coulter, Miami, FL, USA) within an hour. […] The experiment was performed with four replicates. The positive control was doxorubicin-treated CMC cells, while the negative control was 0.1% DMSO-treated CMC cells.
(In flow cytometry, cells or beads pass a laser one at a time.)

The test system of experiment [2] is CMGT071020 cells. Description: Annexin V-FITC/PI apoptosis assay, flow cytometry. The settings on record: 48 h; for percentage of total apoptosis: untreated 5.97%. On the procedure:
as §1

For experiment [3], the system named is REM134 cells. Description: MTT cell proliferation/cytotoxicity assay. The settings on record: Canis lupus familiaris, read-out: Half-Maximal Inhibitory Concentration (IC50). On the procedure: (§2) The cytotoxic effects of the three BZOP derivatives were studied via the 3-(4,5-Dimethyl-2-thiazolyl)-2,5-diphenyl-2H-tetrazolium bromide (MTT) assay. The REM134, CMGT071020, and MDCK cell lines were seeded at a density of 5 × 10^3 cells/well in 96-well plates and allowed to grow for 24 h. They were then treated with the three BZOP derivatives at various concentrations (0–300 µM) for 24 or 48 h, whereas cells treated with the culture medium containing 0.1% dimethyl sulfoxide (DMSO) were used as a negative control as the compounds were dissolved in DMSO. Subsequently, the cells were incubated with 10 µL of an MTT solution (Sigma, St. Louis, MO, USA) for 4 h. After the incubation with MTT solution, 100 µL of a solubilization solution was added to dissolve water-insoluble purple formazan crystals, and the plate was incubated overnight at 37 °C in 5% CO2. The absorbance of the formazan solution was measured using a Synergy H1 hybrid multi-mode microplate reader (BioTek, Winooski, VT, USA) at 570 nm. The experiment was conducted with four replicates, and the relative cell viability (%) of the treated cells was expressed as a percentage relative to the untreated control cells, which were considered to have 100% viability.

The test system of experiment [4] is CMGT071020 cells. Put plainly: MTT cell proliferation/cytotoxicity assay. The settings on record: Canis lupus familiaris, read-out: Half-Maximal Inhibitory Concentration (IC50). On the procedure:
as §2

The test system of experiment [5] is MDCK cells. Put plainly: MTT cell proliferation/cytotoxicity assay. As to conditions: Canis lupus familiaris, read-out: Half-Maximal Inhibitory Concentration (IC50). On the procedure: as §2
For experiment [6], the system named is REM134 cells. Put plainly: Wound healing assay. As to conditions: REM134, 100 or 200 µM, 12 or 24 h, vs untreated control. As to the method: (§3) The effect of MPOBA on cell migration was examined using a two-dimensional wound healing assay. The REM134 and CMGT071020 cell lines were seeded in a 6-well plate at a density of 5 × 10^5 cells/well and allowed to incubate for 24 h until they reached 100% confluence. The cells were scratched using a sterile 1 mL pipette tip and then treated with MPOBA at concentrations ranging from 0 to 200 µM for 24 h. Images of the scratches were captured at 0, 12, and 24 h post-treatment using phase-contrast microscopy. The wound areas were checked and measured using the NIS-Elements D imaging software program version 5.2 (Nikon, Tokyo, Japan). The cell migration ability was calculated as a percentage of the area covered by cells at 24 h compared to the initial wound area at 0 h. The experiments were repeated four times.

For experiment [7], the system named is CMGT071020 cells. Description: Wound healing assay. The settings on record: CMGT071020, 100 or 200 µM, 12 or 24 h, vs untreated control. On the procedure:
as §3

Experiment [8] concerns REM134 cells. Description: Transwell migration assay. The settings on record: 24 h, vs control (0.1% DMSO). As to the method:
(§4) The CMC cell migration assay was carried out using Transwell 24-well microplates with an 8 µm pore size (Costar, Corning, NY, USA). Both CMC cell lines were seeded into the upper Transwell insert at a density of 5 × 10^3 cells/well, containing various concentrations of MPOBA (0–200 µM) with 5% FBS in DMEM media. Then, 10% FBS in DMEM medium was added into the lower chambers, and the cells were incubated for 24 h. After an incubation duration of 24 h, the non-invaded cells were removed with a cotton swab from the upper surface of the membrane, and the invaded cells on the lower surface of the membrane were fixed with 100% methanol for 1 min and stained with the Wright–Giemsa stain for 20 min. The number of migrated cells was averaged by counting five random microscope fields for each sample at 4 × magnification in four independent experiments.

In experiment [9] the test system is CMGT071020 cells. Put plainly: Transwell migration assay. As to conditions: 24 h, vs control (0.1% DMSO). As to the method: as §4

`Cc1ncccc1Oc1ccccc1C=O` [MPOBA, 2-((2-methylpyridin-3-yl)oxy)benzaldehyde]: the viability at 50 µM in experiment [1] (Canis lupus familiaris, REM134, 50 μM, Figure 7A plot, read-out: viable cells) amounted to 84.1%; in experiment [2] (Canis lupus familiaris, CMGT071020, 50 μM, Figure 7A plot, read-out: viable cells) it was 80.6%. Further, the viability at 100 µM in experiment [1] (Canis lupus familiaris, REM134, 100 μM, Figure 7A plot, read-out: viable cells) was found to be 75.5%; in experiment [2] (Canis lupus familiaris, CMGT071020, 100 μM, Figure 7A plot, read-out: viable cells), 72.9%. Besides, the viability at 200 µM turned out to be 69.6% in experiment [1] (Canis lupus familiaris, REM134, 200 μM, Figure 7A plot, read-out: viable cells) and 63.4% in experiment [2] (Canis lupus familiaris, CMGT071020, 200 μM, Figure 7A plot, read-out: viable cells). In addition, the “percentage of total apoptosis” value in experiment [1] (REM134, 100 µM) came out at 23.6%; in experiment [1] (REM134, 200 µM), 28.75%; in experiment [2] (CMGT071020, 100 µM) it was 21.88%; in experiment [2] (CMGT071020, 200 µM), 27.07%. Also, the IC50 is 265 µM in [3] (REM134, 24 h); 87 µM in experiment [3] (REM134, 48 h); more than 300 µM in [4] (CMGT071020, 24 h); 104 µM in experiment [4] (CMGT071020, 48 h); more than 300 µM in experiment [5] (24 h); 267 µM in experiment [5] (48 h). Also, the “cell migration (wound closure)” value in [6] and in experiment [7] was “significant decline in cell migration” throughout. In addition, the “percentage of migrated cells” value in experiment [8] (REM134, 100 µM) stood at 35%; in experiment [8] (REM134, 200 µM), 26%; in experiment [9] (CMGT071020, 100 µM), 68%; in experiment [9] (CMGT071020, 200 µM) it was 40%.
